The record followed here is US10428111B2, “Cancer targeting by anti-EGFR peptides and applications thereof” (priority 2015, dated 2019).

Molecules are shown by their SMILES. Like-named read-outs stand apart in the source and are kept apart here.

The term IC50 denotes the concentration at which inhibition is half-maximal.

Data set [1] relates to SKBR3 (HER2-overexpressing cells). The data set can be described thus: MTT cytotoxicity study. Type of data set: cell-based, human. The settings on record: then 48 hours, mean ± SD, n = 3. The protocol:
(§1) The anti-proliferative effects of liposomal preparations containing DOX were assessed using MTT assay. SK-BR-3, TUBO, and MDA-MB-231 cells were seeded at 7000, 10,000, 2500 cells/well in 96 well plates. After an overnight incubation, the medium was replaced with FCS free medium containing 1:2 serial dilutions of liposomal DOX or free DOX. After 3 hours and 6 hours' incubation times at 37° C., cells were washed with pre-warmed complete culture media and re-incubated further for 48 hours at 37° C. in their complete culture medium. Then, the medium was replaced with 100 μL of freshly prepared MTT (10% v/v, 5 mg/mL) and FCS free culture medium. Finally, after 4 hours of incubation at 37° C., the absorbance at 545 nm was recorded. Relative cell death (R) was calculated as follows: R=1−[(Atest−Ablank)/(Acontrol−Ablank)] Equation (1)
(§2) In the above Equation (1), Atest is the absorbance values of the cells treated with the test solutions and Acontrol is the absorbance values of the culture medium (negative control). Ablank is the absorbance of MTT solution added in cell free wells. The IC50 was then calculated using CalcuSyn version 2 software (BIOSOFT, UK).

For data set [2], the system named is TUBO breast carcinoma tumor. The data set can be described thus: Chemotherapy study in tumor-bearing mice. The settings on record: for CR (complete regression) / TFS (tumor free survivor): number of animals of n = 4-5; for TGD (Tumor growth delay): versus dextrose 5% control.
Method: Initially, on day 0, female BALB/c mice aged 4-6 weeks were given subcutaneous injections of TUBO tumor cells (5×10^5 cells per mouse) in the right flank. On day 11, post-tumoring mice with palpable tumor received 0.2 mL via a single tail vein injection of either dextrose 5% solution as negative control or doxorubicin encapsulated in liposomes (15 mg/kg). Mice were weighed and tumor sizes were monitored during the experimental period. The tumor volume was estimated by measuring three orthogonal diameters (a, b, and c) with calipers; the volume was calculated as (a×b×c)×0.5 mm^3. Tumors that were just palpable were defined as 1 mm^3. To survival study, the mice were monitored for up to 120 days post-tumoring or until one of the following conditions for euthanasia was met: (1) their body weight dropped below 20% of their initial mass; (2) their tumor was greater than 2.0 cm across in any dimension; (3) they became lethargic or sick and unable to feed; or (4) they were found dead. The time to reach the endpoint (TTE) for each mouse was calculated from the equation of the line obtained by exponential regression of the tumor growth curve. Subsequently, the percent of tumor growth delay (% TGD) were calculated based on the difference between the mean TTE of treatment group (T) and theme an TTE of the control group (C) (% TGD=[(T−C)/C]×100). […] In a partial regression response, the tumor volume is less than or equal to 50% of its day 1 volume for three consecutive measurements during the course of the study, and greater than or equal to 13.5 mm^3 for one or more of these three measurements. In a complete regression response, the tumor volume is less than 13.5 mm^3 for three consecutive measurements during the course of the study. An animal with a complete regression response at the end of the study was additionally classified as a tumor-free survivor.
The investigation to get the above-mentioned results took place in female BALB/c mice earing TUBO breast carcinoma tumor after administration of a single dose of 15 mg/kg liposome loaded by doxorubicin (DOX) or dextrose 5% on day 11 after tumor inoculation.
The nature of data set [3]: Bio-distribution study (DOX in plasma, tumor and tissues). Format: in vivo, BALB/c mice. The settings on record: 15 mg/kg as DOX; after 3 hours. The protocol: Two weeks after tumor inoculation, when the tumors were approximately 5 mm wide, mice (3 per group) were injected via the tail vain with either 15 mg/kg of doxorubicin as Caelyx® or targeted liposomes. Control mice received 200 μL of dextrose 5%. Blood samples were collected via retro orbital bleeding (approx. 0.5 mL) 3, 6, and 12 hours after the dosing. After 24 hours, the group was sacrificed for tissue collection. Blood samples were collected by heart puncture, and the whole tumor, kidneys, spleen, heart, lungs as well as a portion of liver and muscle were dissected, weighted and placed in a 2 mL Polypropylene Microvials containing 1 mL of acidified isopropanol and zirconia bead sand homogenized by Mini-Beadbeater-1. The blood was allowed to coagulate at 4° C. and then centrifuged for 10 min at 14,000 rpm. Then, serum was collected and an adequate volume was diluted in 1 mL acidified isopropanol. The homogenized tissue samples and the sera were stored overnight at 4° C. to extract the drug. The samples were then centrifuged and the supernatant was assayed for DOX concentration spectrofluorimetrically (Ex:470 nm, Em:590 nm). The calibration curve was prepared using serial dilutions of Doxil the tissue and sera extracts of the control mice. […]

In data set [4] the test system is MDA-MB-231 (HER2-Low expressing cells). In words: MTT cytotoxicity study. Format: cell-based. To be noted: then 48 hours, mean ± SD, n = 3. The protocol: as §1, §2
Data set [5] has as its system TUBO (HER2-overexpressing cells). In words: MTT cytotoxicity study. Format: cell-based, mice. To be noted: then 48 hours, mean ± SD, n = 3. The protocol: as §1, §2
Where [6] appears, read: Table 3B (719W), liposomes 15 mg/kg, DOX 10 mg/kg.

As for `COc1cccc2c1C(=O)c1c(O)c3c(c(O)c1C2=O)C[C@@](O)(C(=O)CO)C[C@@H]3O[C@H]1C[C@H](N)[C@H](O)[C@H](C)O1` [DOX, doxorubicin], the IC50 in data set [1] (Table 2A (420W), 3 hours incubation, read-out: IC50 SKBR3 3 hours) worked out at 0.62 ± 0.02 µM; in data set [1] (Table 2A (420W), 6 hours incubation, read-out: IC50 SKBR3 6 hours) it was 0.39 ± 0.05 µM; in data set [1] (Table 2B (719W), 3 h incubation, read-out: IC50 SKBR3 3 h), 0.56 ± 0.02 µM; in data set [1] (Table 2B (719W), 6 h incubation, read-out: IC50 SKBR3 6 h) it was 0.24 ± 0.01 µM; in data set [4] (Table 2A (420W), 3 hours incubation, read-out: IC50 MDA-MB-231 3 hours), 0.6 ± 0.05 µM; in data set [4] (Table 2A (420W), 6 hours incubation, read-out: IC50 MDA-MB-231 6 hours) it was 0.26 ± 0.01 µM. In addition, the IC50 in data set [4] (Table 2B (719W), 3 h incubation, read-out: IC50 MDA-MB-231 3 h) turned out to be 0.6 ± 0.09 µM; in data set [4] (Table 2B (719W), 6 h incubation, read-out: IC50 MDA-MB-231 6 h), 0.26 ± 0.04 µM; in data set [5] (Table 2A (420W), 3 hours incubation, read-out: IC50 TUBO 3 hours), 0.15 ± 0.07 µM; in data set [5] (Table 2A (420W), 6 hours incubation, read-out: IC50 TUBO 6 hours), 0.09 ± 0.01 µM; in data set [5] (Table 2B (719W), 3 h incubation, read-out: IC50 TUBO 3 h), 0.15 ± 0.01 µM; in data set [5] (Table 2B (719W), 6 h incubation, read-out: IC50 TUBO 6 h), 0.09 ± 0.03 µM. Besides, the “CR (complete regression)” value in data set [2] (Table 3A (420W)) and in data set [2] (setting [6]) was 0 each time. In addition, the “TFS (tumor free survivor)” value in data set [2] (Table 3A (420W)) and in data set [2] (setting [6]) was 0 in each case. Besides, the “TTE (time to reach the end point)” value in data set [2] (Table 3A (420W), single i.v. dose on day 11, monitored up to 120 days) was found to be 70.4 days; in data set [2] (setting [6]), 70.4 days. The “MST (Median survival Time)” value in data set [2] (Table 3A (420W), single i.v. dose on day 11 after tumor inoculation, monitored up to 120 days) was 69.2 days; in data set [2] (Table 3B (719W), single i.v. dose, liposomes 15 mg/kg, DOX 10 mg/kg, up to 120 days), 69.2 days. The “TGD (Tumor growth delay)” value in data set [2] (Table 3A (420W)) and in data set [2] (setting [6]) was 18% in each case. Moreover, the “plasma concentration of DOX after intravenous injection” value in data set [3] is listed as “below the detection limit”.
